34 compounds from patent US12479822B2, “AHR agonists” (Eli Lilly and Company, priority 2021, dated 2025) can be followed below.

Where a name gives a salt, the structure may show the parent alone.

Usually EC50 stands for the midpoint of the concentration-response curve.

This data set addresses T1, Human AHR (Homo sapiens, UniProt P35869).
T1 construct: expressed in transfected cells
T1 sequence (P35869 11-848): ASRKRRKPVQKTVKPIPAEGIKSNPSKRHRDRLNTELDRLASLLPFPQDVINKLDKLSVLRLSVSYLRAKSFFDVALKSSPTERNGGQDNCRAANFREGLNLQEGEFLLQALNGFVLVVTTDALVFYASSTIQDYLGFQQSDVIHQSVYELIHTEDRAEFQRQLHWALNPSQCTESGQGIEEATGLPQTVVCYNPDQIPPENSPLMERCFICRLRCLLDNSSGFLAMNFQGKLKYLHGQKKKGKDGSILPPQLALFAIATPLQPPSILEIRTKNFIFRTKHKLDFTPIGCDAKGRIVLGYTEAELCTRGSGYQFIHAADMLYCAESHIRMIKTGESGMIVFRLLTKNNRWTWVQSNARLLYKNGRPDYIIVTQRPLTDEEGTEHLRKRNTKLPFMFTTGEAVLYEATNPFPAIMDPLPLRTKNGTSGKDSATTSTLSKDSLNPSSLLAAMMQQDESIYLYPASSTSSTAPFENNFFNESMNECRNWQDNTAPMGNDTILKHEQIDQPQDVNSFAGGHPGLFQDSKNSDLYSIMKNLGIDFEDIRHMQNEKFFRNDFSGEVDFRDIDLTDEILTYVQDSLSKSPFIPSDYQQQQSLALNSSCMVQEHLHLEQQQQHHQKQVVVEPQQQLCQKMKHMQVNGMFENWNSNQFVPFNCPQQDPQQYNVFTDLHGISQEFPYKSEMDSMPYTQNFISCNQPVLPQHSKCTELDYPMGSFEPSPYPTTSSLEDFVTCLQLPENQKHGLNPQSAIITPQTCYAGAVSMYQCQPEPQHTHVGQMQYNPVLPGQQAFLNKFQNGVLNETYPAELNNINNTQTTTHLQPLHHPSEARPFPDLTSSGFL
The data set is described as follows: hAHR Nuclear Translocation Assay. In kind it is cell-based. Particulars: Jump-In T-REx HEK293 cells expressing AhR-EGFP chimera; 45 minutes incubation; ratio of EGFP fluorescent intensity in nuclear over cytosol; 20-point curve. Here is the method:
Stable cell lines were established using Jump-In™ T-REx™ HEK293 Retargeting Kit (Life Technologies). Human AHR cDNA was cloned into the pJTI R4 CMV-TO EGFP vector. The EGFP was cloned to the C-terminal of AHR to form AhR-EGFP chimera. The pJTI R4 CMV-TO AhR-EGFP vector was transfected using FuGENE® HD into Jump-In™ T-REx™ HEK293 cells. Transfected cells were selected using 2.5 mg/ml G418 for 10 to 14 days, then expanded, harvested, and suspended in freeze media (FBS with 8% DMSO) at 2×10^7 cells/ml, and aliquots were stored in liquid nitrogen. […] On the assay date, compound was serially diluted (1:2) into 384-well nunc plates with DMSO using acoustic dispensing (ECHO). The dose response was a 20-point curve. Compound was resuspended in 40 μl of DMEM plus 0.1% BSA. The culture media was damped and 25 μl of DMEM plus 0.1% BSA was added, then 25 μl of compound in DMEM plus 0.1% BSA was added into cell plates. Cells were incubated with compounds at 37° C. and 5% CO2 for 45 minutes. The final DMSO concentration was 0.2%. The media was damped after 45 minutes of incubation. The cells were fixed with 40 μl of cold methanol (−20° C.) for 20 minutes. The methanol was damped and 50 μl of DPBS containing 1 μg/ml Hochst was added into the cell plates. The intensity of EGFP was quantitated by using OPERA PHENIX® or Operetta™ high content image system (Perkin Elmer) with 20× Water Objective and five field per well. The ratio of EGFP fluorescent intensity in nuclear over cytosol was analyzed using a 4-parameter nonlinear logistic equation to determine the potency of AHR agonists.
Consider `COc1ccc(NC(=O)c2cc3ccc(Br)cc3n(C)c2=O)cc1` [Example 36, 7-Bromo-N-(4-methoxyphenyl)-1-methyl-2-oxo-quinoline-3-carboxamide], for which the EC50 stood at 0.832 nM.
The value for `Cn1c(=O)c(C(=O)Nc2ccccn2)cc2c(NCCO)cccc21` [Example 65, 5-(2-Hydroxyethylamino)-1-methyl-2-oxo-N-(2-pyridyl)quinoline-3-carboxamide] was 6.69 nM; that for `COc1ccc(NC(=O)c2cc3cccc4c3n(c2=O)CCC4)cc1` [Example 25, N-(4-Methoxyphenyl)-2-oxo-1-azatricyclo[7.3.1.05,13]trideca-3,5,7,9(13)-tetraene-3-carboxamide] was 2.57 nM; that for `Cc1ccc(NC(=O)c2cc3ccccc3n(C)c2=O)cc1` [Example 5, 1-Methyl-2-oxo-N-(p-tolyl) quinoline-3-carboxamide] was 0.0971 nM.
With `Cn1c(=O)c(C(=O)Nc2ccccc2)cc2cc(OCCO)ccc21` [Example 58, 6-(2-Hydroxyethoxy)-1-methyl-2-oxo-N-phenyl-quinoline-3-carboxamide] the figure was 7.45 nM.
With `Cn1c(=O)c(C(=O)Nc2ccccc2)cc2ccc(NCCO)cc21` [Example 70, 7-(2-Hydroxyethylamino)-1-methyl-2-oxo-N-phenyl-quinoline-3-carboxamide] the figure was 15.1 nM; with `Cn1c(=O)c(C(=O)Nc2ccncc2)cc2ccccc21` [Example 12, 1-Methyl-2-oxo-N-(4-pyridyl)quinoline-3-carboxamide], 6.89 nM; with `COc1ccc(NC(=O)c2cc3ccccc3n(C)c2=O)cc1` [Example 1, N-(4-Methoxyphenyl)-1-methyl-2-oxo-quinoline-3-carboxamide], 0.304 nM.
With `COc1ccc(NC(=O)c2cc3ccccc3n(C)c2=O)c(C)c1` [Example 6, N-(4-Methoxy-2-methyl-phenyl)-1-methyl-2-oxo-quinoline-3-carboxamide], the EC50 is 5.17 nM.
With `Cn1c(=O)c(C(=O)Nc2ccccc2)cc2cc(NCCO)ccc21` [Example 62, 6-(2-Hydroxyethylamino)-1-methyl-2-oxo-N-phenyl-quinoline-3-carboxamide] the figure was 6 nM; with `CO[C@H]1CC[C@@H](NC(=O)c2cc3cccc4c3n(c2=O)CC4)C1` (relative stereo) [Example 31, 11-Oxo-N-[rel-(1S,3R)-3-methoxycyclopentyl]-1-azatricyclo[6.3.1.04,12]dodeca-4(12),5,7,9-tetraene-10-carboxamide], 53.2 nM.
Turning to `COc1ccc(NC(=O)c2cc3ccc(N(C)C)cc3n(C)c2=O)cc1` [Example 47, 7-(Dimethylamino)-N-(4-methoxyphenyl)-1-methyl-2-oxo-quinoline-3-carboxamide], the EC50 came to 18 nM.
For `CN(C)CCNc1cccc2c1cc(C(=O)Nc1ncc(F)cn1)c(=O)n2C` [Example 57, 5-[2-(Dimethylamino)ethylamino]-N-(5-fluoropyrimidin-2-yl)-1-methyl-2-oxo-quinoline-3-carboxamide], the EC50 turned out to be 62.8 nM.
On to `COc1ccc(NC(=O)c2cc3ccc(C)cc3n(C)c2=O)cc1` [Example 44, N-(4-Methoxyphenyl)-1,7-dimethyl-2-oxo-quinoline-3-carboxamide], for which the EC50 came out at 0.595 nM.
The value for `Cn1c(=O)c(C(=O)Nc2ccc(C#N)nc2)cc2ccccc21` [Example 24, N-(6-Cyano-3-pyridyl)-1-methyl-2-oxo-quinoline-3-carboxamide] was 7.36 nM; that for `O=C(Nc1ccccc1)c1cc2ccccc2[nH]c1=O` [Example 34, 2-Oxo-N-phenyl-1H-quinoline-3-carboxamide] was 9.04 nM; that for `Cn1c(=O)c(C(=O)Nc2ncc(F)cn2)cc2c(NCCO)cccc21` [Example 68, N-(5-Fluoropyrimidin-2-yl)-5-(2-hydroxyethylamino)-1-methyl-2-oxo-quinoline-3-carboxamide] was 81.2 nM.
With `COc1cnc(NC(=O)c2cc3ccccc3n(C)c2=O)cn1` [Example 16, N-(5-Methoxypyrazin-2-yl)-1-methyl-2-oxo-quinoline-3-carboxamide] the figure was 1.09 nM; with `O=C(Nc1ccc(C(F)(F)F)cc1)c1cc2cccc3c2n(c1=O)CC3` [Example 33, 11-Oxo-N-[4-(trifluoromethyl)phenyl]-1-azatricyclo[6.3.1.04,12]dodeca-4(12),5,7,9-tetraene-10-carboxamide], 1.33 nM.
As to `Cn1c(=O)c(C(=O)Nc2ncccc2F)cc2ccccc21` [Example 28, N-(3-Fluoro-2-pyridyl)-1-methyl-2-oxo-quinoline-3-carboxamide], the EC50 was found to be 1.91 nM.
For the compound `Cn1c(=O)c(C(=O)Nc2ncc(F)cn2)cc2ccccc21` [Example 14, N-(5-Fluoropyrimidin-2-yl)-1-methyl-2-oxo-quinoline-3-carboxamide], the concentration giving a half-maximal response (EC50) is 0.993 nM.
With `Cn1c(=O)c(C(=O)Nc2ccccc2)cc2c(NCCO)cccc21` [Example 63, 5-(2-Hydroxyethylamino)-1-methyl-2-oxo-N-phenyl-quinoline-3-carboxamide] the figure was 1.91 nM; with `CNc1ccc2cc(C(=O)Nc3ccc(OC)cc3)c(=O)n(C)c2c1` [Example 46, N-(4-Methoxyphenyl)-1-methyl-7-(methylamino)-2-oxo-quinoline-3-carboxamide], 2.21 nM.
With `Cc1ccc(NC(=O)c2cc3cccc4c3n(c2=O)CC4)cc1` [Example 29, 11-Oxo-N-(p-tolyl)-1-azatricyclo[6.3.1.04,12]dodeca-4(12),5,7,9-tetraene-10-carboxamide] the figure was 0.57 nM.
For the compound `CN(C)CCNc1cccc2c1cc(C(=O)Nc1ccccn1)c(=O)n2C` [Example 53, 5-[2-(Dimethylamino)ethylamino]-1-methyl-2-oxo-N-(2-pyridyl)quinoline-3-carboxamide], the EC50 is 16.2 nM.
The value for `O=C(Nc1ccccn1)c1cc2cccc3c2n(c1=O)CC3` [Example 42, 11-Oxo-N-(2-pyridyl)-1-azatricyclo[6.3.1.04,12]dodeca-4(12),5,7,9-tetraene-10-carboxamide] was 3.96 nM; that for `Cn1c(=O)c(C(=O)Nc2ncccn2)cc2ccccc21` [Example 39, 1-Methyl-2-oxo-N-pyrimidin-2-yl-quinoline-3-carboxamide] was 3.52 nM.
The value for `Cn1c(=O)c(C(=O)Nc2ccccc2O)cc2ccccc21` [Example 2, N-(2-Hydroxyphenyl)-1-methyl-2-oxo-quinoline-3-carboxamide] was 2.41 nM; that for `COc1cccc(NC(=O)c2cc3ccccc3n(C)c2=O)n1` [Example 21, N-(6-Methoxy-2-pyridyl)-1-methyl-2-oxo-quinoline-3-carboxamide] was 10.8 nM; that for `Cn1cc(NC(=O)c2cc3ccccc3n(C)c2=O)cn1` [Example 27, hydrochloride] was 10.6 nM.
The value for `Cc1cnc(NC(=O)c2cc3ccccc3n(C)c2=O)nc1` [Example 17, 1-Methyl-N-(5-methylpyrimidin-2-yl)-2-oxo-quinoline-3-carboxamide] was 2.37 nM; that for `Cc1ccccc1NC(=O)c1cc2ccccc2n(C)c1=O` [Example 11, 1-Methyl-N-(o-tolyl)-2-oxo-quinoline-3-carboxamide] was 3.5 nM.
Regarding `CN(C)CCNc1cccc2c1cc(C(=O)Nc1ccc(F)cn1)c(=O)n2C` [Example 51, 5-[2-(Dimethylamino)ethylamino]-N-(5-fluoro-2-pyridyl)-1-methyl-2-oxo-quinoline-3-carboxamide], the EC50 stood at 16.4 nM.
With `COc1cnc(NC(=O)c2cc3ccccc3n(C)c2=O)nc1` [Example 15, N-(5-Methoxypyrimidin-2-yl)-1-methyl-2-oxo-quinoline-3-carboxamide] the figure was 14.2 nM.
